# Patent US11795177B2, “Substituted quinoline analogs as aldehyde dehydrogenase 1A1 (ALDH1A1) inhibitors” (THE UNITED STATES OF AMERICA, AS REPRESENTED BY THE …, priority 2017, dated 2023)
# pIC50: −log10 of the molar value.
# System: MIA PaCa-2 cells
# Test: MIA PaCa2 cell-based assay (1,536-well high-content imaging ALDEFLUOR assay)
# Design: species or system human
# Settings: Homo sapiens, 0.5 h, ALDEFLUOR BAAA substrate 500 nM, 30 minutes
# Method in brief: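 MIA PaCa-2 cells (1,000/well), plated overnight, given BAAA substrate (500 nM) plus Hoechst 33342 (0.5 nM), then compound (16-point, 1.4 nM–47.8 μM final; 0.5% DMSO). After 30 min at 37° C, ALDH activity imaged by high-content microscopy as BAA-retaining (FITC) cells versus Hoechst-stained nuclei.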
row,SMILES,pIC50
1,"CC1(C#N)CCN(c2c(C(=O)N3CCN(S(C)(=O)=O)CC3)cnc3[nH]ncc23)CC1 [Example 235, 4-methyl-1-(5-(4-(methylsulfonyl)piperazine-1-carbonyl)-1H-pyrazolo[3,4-b]pyridin-4-yl)piperidine-4-carbonitrile]",< 5.00
2,"CC1(C#N)CCN(c2c(C(=O)N3CCN(S(C)(=O)=O)CC3)cnc3[nH]ccc23)CC1 [Example 236, 4-methyl-1-(5-(4-(methylsulfonyl)piperazine-1-carbonyl)-1H-pyrrolo[2,3-b]pyridin-4-yl)piperidine-4-carbonitrile]",5.00 to 6.00
3,"N#CC1(CC2CC2)CCN(c2c(C(=O)N3CCN(C(=O)C4CC4)CC3)cnc3ccc(F)cc23)CC1 [Example 242, 1-(3-(4-(cyclopropanecarbonyl)piperazine-1-carbonyl)-6-fluoroquinolin-4-yl)-4-(cyclopropylmethyl)piperidine-4-carbonitrile]",6.00 to 6.30
4,"N#CC1(Cc2ccccc2)CCN(c2c(C(=O)N3CCN(C(=O)C4CC4)CC3)cnc3ccc(F)cc23)CC1 [Example 244, 4-benzyl-1-(3-(4-(cyclopropanecarbonyl)piperazine-1-carbonyl)-6-fluoroquinolin-4-yl)piperidine-4-carbonitrile]",< 5.00
5,"CS(=O)(=O)N1CCN(C(=O)c2cnc3ccc(F)cc3c2N2CCC(C#N)(Cc3ccccc3)CC2)CC1 [Example 245, 4-benzyl-1-(6-fluoro-3-(4-(methylsulfonyl)piperazine-1-carbonyl)quinolin-4-yl)piperidine-4-carbonitrile]",5.00 to 6.00

# More lines, now with the values ahead:
row,pIC50,SMILES
1,5.00 to 6.00,"CS(=O)(=O)N1CCN(C(=O)c2cnc3ccc(F)cc3c2N2CCC3(CC2)C(=O)Cc2ccccc23)CC1 [Example 247, 1′-(6-fluoro-3-(4-(methylsulfonyl)piperazine-1-carbonyl)quinolin-4-yl)spiro[indene-1,4′-piperidin]-2(3H)-one]"
2,5.00 to 6.00,"CS(=O)(=O)N1CCN(C(=O)c2cnc3ccc(F)cc3c2N2CCC(CO)(c3ccccc3)CC2)CC1 [Example 256, (6-fluoro-4-(4-(hydroxymethyl)-4-phenylpiperidin-1-yl)quinolin-3-yl)(4-(methylsulfonyl)piperazin-1-yl)methanone]"
3,> 6.30,"CS(=O)(=O)N1CCN(C(=O)c2cnc3ccc(F)cc3c2N2CCC(C=O)(c3ccccc3)CC2)CC1 [Example 257, 1-(6-fluoro-3-(4-(methylsulfonyl)piperazine-1-carbonyl)quinolin-4-yl)-4-phenylpiperidine-4-carbaldehyde]"
4,> 6.30,"CN(C)S(=O)(=O)N1CCN(C(=O)c2cnc3ccc(F)cc3c2-c2ccc(C3(C#N)CC3)cc2)CC1 [Example 260, 4-(4-(4-(1-cyanocyclopropyl)phenyl)-6-fluoroquinoline-3-carbonyl)-N,N-dimethylpiperazine-1-sulfonamide]"
5,> 6.30,"N#CC1(c2ccc(-c3c(C(=O)N4CCN(C(=O)C5CC5)CC4)cnc4ccc(F)cc34)cc2)CC1 [Example 262, 1-(4-(3-(4-(cyclopropanecarbonyl)piperazine-1-carbonyl)-6-fluoroquinolin-4-yl)phenyl)cyclopropanecarbonitrile]"
6,> 6.30,"CC(C)(C#N)c1ccc(-c2c(C(=O)N3CCN(C(=O)C4CC4)CC3)cnc3ccc(F)cc23)cc1 [Example 264, 2-(4-(3-(4-(cyclopropanecarbonyl)piperazine-1-carbonyl)-6-fluoroquinolin-4-yl)phenyl)-2-methylpropanenitrile]"
7,> 6.30,"CN(C)C(=O)N1CCN(C(=O)c2cnc3ccc(F)cc3c2-c2ccc(C3(C#N)CC3)cc2)CC1 [Example 265, 4-(4-(4-(1-cyanocyclopropyl)phenyl)-6-fluoroquinoline-3-carbonyl)-N,N-dimethylpiperazine-1-carboxamide]"
8,> 6.30,"CN(C)S(=O)(=O)N1CCN(C(=O)c2cnc3ccc(F)cc3c2N2CCC(C#N)(c3ccccc3)CC2)CC1 [Example 270, 4-(4-(4-cyano-4-phenylpiperidin-1-yl)-6-fluoroquinoline-3-carbonyl)-N,N-dimethylpiperazine-1-sulfonamide]"
